{"source": "paper PMC4490117", "about": "(Pharmaceutical research, 2015)", "key": {"[1]": {"assay": "T1 relaxation time by MRI phantom, 4.7 Tesla", "type": "physicochemical", "conditions": "same gadolinium concentration, Avg ± SD, n=3"}, "[2]": {"tested_on": "subcutaneous flank SKOV-3 tumors", "assay": "T1-weighted MRI of tumor accumulation in tumor-bearing mice", "type": "in vivo, nu/nu mice", "conditions": "IV, gadolinium 0.072 mmoles/kg, SKOV-3 tumor-bearing mice, n=3"}}, "data": [{"smiles": "CNC[C@H](O)[C@@H](O)[C@H](O)[C@H](O)CO.CNC[C@H](O)[C@@H](O)[C@H](O)[C@H](O)CO.O=C([O-])CN(CCN(CC(=O)[O-])CC(=O)O)CCN(CC(=O)[O-])CC(=O)O.[Gd+3]", "note": "[Magnevist]", "values": [{"measurement": "T1 Relaxivity", "setting": "[1]", "value": 22, "unit": "ms"}, {"measurement": "time to clear from the tumor (T1-weighted images)", "setting": "[2]; Figure 4A", "value": "≤ 6", "unit": "h"}, {"measurement": "time to clear from tumor tissues (relative T1 signal, % tumor signal vs time)", "setting": "[2]; Figure 4B", "value": "≤ 5", "unit": "h"}]}]}
